Numbers after ± are expanded uncertainties.
Assay: xn = mol fraction of the nth substance listed
Conditions: 100 kPa, Liquid; for viscosity: Falling or rolling sphere viscometry; for mass density: Vibrating tube method

OC1CCCC1 [cyclopentanol] + C1C[C@@H]2[C@H]3CC[C@H](C3)[C@@H]2C1
Conditions | mass density [kg/m3] | viscosity [mPa·s]
293.15 K, x1 = 0.101 | 935.59 ± 0.66 | 3.091 ± 0.069
293.15 K, x1 = 0.201 | 935.84 ± 0.63 | 3.26 ± 0.072
293.15 K, x1 = 0.296 | 936.28 ± 0.61 | 3.471 ± 0.076
293.15 K, x1 = 0.3962 | 937.08 ± 0.59 | 3.794 ± 0.083
293.15 K, x1 = 0.5016 | 938.1 ± 0.58 | 4.304 ± 0.093
293.15 K, x1 = 0.6017 | 939.39 ± 0.58 | 5.009 ± 0.11
293.15 K, x1 = 0.7011 | 940.96 ± 0.57 | 5.976 ± 0.13
293.15 K, x1 = 0.7968 | 942.64 ± 0.57 | 7.24 ± 0.15
293.15 K, x1 = 0.9005 | 944.8 ± 0.57 | 9.125 ± 0.19
298.15 K, x1 = 0.101 | 931.59 ± 0.66 | 2.829 ± 0.063
298.15 K, x1 = 0.201 | 931.81 ± 0.63 | 2.917 ± 0.064
298.15 K, x1 = 0.296 | 932.23 ± 0.61 | 3.093 ± 0.068
298.15 K, x1 = 0.3962 | 932.99 ± 0.59 | 3.355 ± 0.073
298.15 K, x1 = 0.5016 | 934 ± 0.58 | 3.762 ± 0.081
298.15 K, x1 = 0.6017 | 935.27 ± 0.57 | 4.32 ± 0.093
298.15 K, x1 = 0.7011 | 936.86 ± 0.57 | 5.083 ± 0.11
298.15 K, x1 = 0.7968 | 938.57 ± 0.57 | 6.076 ± 0.13
298.15 K, x1 = 0.9005 | 940.78 ± 0.57 | 7.555 ± 0.16
303.15 K, x1 = 0.101 | 927.56 ± 0.65 | 2.564 ± 0.057
303.15 K, x1 = 0.201 | 927.75 ± 0.63 | 2.623 ± 0.058
303.15 K, x1 = 0.296 | 928.14 ± 0.61 | 2.774 ± 0.061
303.15 K, x1 = 0.3962 | 928.88 ± 0.59 | 2.987 ± 0.065
303.15 K, x1 = 0.5016 | 929.87 ± 0.58 | 3.316 ± 0.072
303.15 K, x1 = 0.6017 | 931.12 ± 0.57 | 3.761 ± 0.081
303.15 K, x1 = 0.7011 | 932.71 ± 0.57 | 4.367 ± 0.093
303.15 K, x1 = 0.7968 | 934.45 ± 0.57 | 5.154 ± 0.11
303.15 K, x1 = 0.9005 | 936.7 ± 0.57 | 6.316 ± 0.13
308.15 K, x1 = 0.101 | 923.52 ± 0.65 | 2.329 ± 0.052
308.15 K, x1 = 0.201 | 923.67 ± 0.62 | 2.376 ± 0.052
308.15 K, x1 = 0.296 | 924.03 ± 0.6 | 2.499 ± 0.055
308.15 K, x1 = 0.3962 | 924.74 ± 0.59 | 2.674 ± 0.058
308.15 K, x1 = 0.5016 | 925.71 ± 0.58 | 2.941 ± 0.064
308.15 K, x1 = 0.6017 | 926.94 ± 0.57 | 3.298 ± 0.071
308.15 K, x1 = 0.7011 | 928.53 ± 0.57 | 3.78 ± 0.081
308.15 K, x1 = 0.7968 | 930.28 ± 0.56 | 4.407 ± 0.094
308.15 K, x1 = 0.9005 | 932.57 ± 0.56 | 5.324 ± 0.11
313.15 K, x1 = 0.101 | 919.47 ± 0.65 | 2.122 ± 0.047
313.15 K, x1 = 0.201 | 919.57 ± 0.62 | 2.156 ± 0.048
313.15 K, x1 = 0.296 | 919.9 ± 0.6 | 2.261 ± 0.05
313.15 K, x1 = 0.3962 | 920.57 ± 0.59 | 2.404 ± 0.052
313.15 K, x1 = 0.5016 | 921.52 ± 0.57 | 2.62 ± 0.057
313.15 K, x1 = 0.6017 | 922.73 ± 0.57 | 2.908 ± 0.062
313.15 K, x1 = 0.7011 | 924.31 ± 0.56 | 3.296 ± 0.071
313.15 K, x1 = 0.7968 | 926.07 ± 0.56 | 3.796 ± 0.081
313.15 K, x1 = 0.9005 | 928.4 ± 0.56 | 4.527 ± 0.096
318.15 K, x1 = 0.101 | 915.4 ± 0.65 | 1.94 ± 0.043
318.15 K, x1 = 0.201 | 915.45 ± 0.62 | 1.965 ± 0.043
318.15 K, x1 = 0.296 | 915.74 ± 0.6 | 2.053 ± 0.045
318.15 K, x1 = 0.3962 | 916.37 ± 0.58 | 2.171 ± 0.047
318.15 K, x1 = 0.5016 | 917.29 ± 0.57 | 2.348 ± 0.051
318.15 K, x1 = 0.6017 | 918.48 ± 0.56 | 2.58 ± 0.055
318.15 K, x1 = 0.7011 | 920.05 ± 0.56 | 2.893 ± 0.062
318.15 K, x1 = 0.7968 | 921.82 ± 0.56 | 3.293 ± 0.07
318.15 K, x1 = 0.9005 | 924.18 ± 0.56 | 3.878 ± 0.082
323.15 K, x1 = 0.101 | 911.31 ± 0.64 | 1.779 ± 0.04
323.15 K, x1 = 0.201 | 911.3 ± 0.62 | 1.799 ± 0.04
323.15 K, x1 = 0.296 | 911.55 ± 0.6 | 1.871 ± 0.041
323.15 K, x1 = 0.3962 | 912.15 ± 0.58 | 1.968 ± 0.043
323.15 K, x1 = 0.5016 | 913.03 ± 0.57 | 2.112 ± 0.046
323.15 K, x1 = 0.6017 | 914.19 ± 0.56 | 2.302 ± 0.049
323.15 K, x1 = 0.7011 | 915.74 ± 0.56 | 2.554 ± 0.055
323.15 K, x1 = 0.7968 | 917.51 ± 0.56 | 2.876 ± 0.061
323.15 K, x1 = 0.9005 | 919.9 ± 0.56 | 3.346 ± 0.071
328.15 K, x1 = 0.101 | 907.2 ± 0.64 | 1.639 ± 0.037
328.15 K, x1 = 0.201 | 907.12 ± 0.61 | 1.65 ± 0.036
328.15 K, x1 = 0.296 | 907.33 ± 0.59 | 1.711 ± 0.037
328.15 K, x1 = 0.3962 | 907.88 ± 0.58 | 1.791 ± 0.039
328.15 K, x1 = 0.5016 | 908.73 ± 0.57 | 1.908 ± 0.041
328.15 K, x1 = 0.6017 | 909.87 ± 0.56 | 2.063 ± 0.044
328.15 K, x1 = 0.7011 | 911.39 ± 0.56 | 2.268 ± 0.049
328.15 K, x1 = 0.7968 | 913.16 ± 0.55 | 2.527 ± 0.054
328.15 K, x1 = 0.9005 | 915.56 ± 0.55 | 2.906 ± 0.062
333.15 K, x1 = 0.101 | 903.08 ± 0.64 | 1.514 ± 0.034
333.15 K, x1 = 0.201 | 902.92 ± 0.61 | 1.521 ± 0.034
333.15 K, x1 = 0.296 | 903.08 ± 0.59 | 1.569 ± 0.034
333.15 K, x1 = 0.3962 | 903.59 ± 0.58 | 1.635 ± 0.036
333.15 K, x1 = 0.5016 | 904.4 ± 0.56 | 1.732 ± 0.037
333.15 K, x1 = 0.6017 | 905.5 ± 0.56 | 1.858 ± 0.04
333.15 K, x1 = 0.7011 | 907 ± 0.55 | 2.023 ± 0.043
333.15 K, x1 = 0.7968 | 908.75 ± 0.55 | 2.233 ± 0.048
333.15 K, x1 = 0.9005 | 911.17 ± 0.55 | 2.54 ± 0.054

From the NIST ThermoML archive (doi:10.1021/acs.jced.9b00074)
